Experimental data reported in US8596358B2, “Well treatment” (Statoil ASA, priority 2004, dated 2013).
Converted amounts (≈) assume the structure as drawn.

Key:
[1] = test system: fish; assay: Fish toxicity (LC50 fish); conditions: in vivo
Text: (§1) Materials for use in the invention include organosilanes, for example organosilane hydrides, organosilane alkoxides and organosilane amines. Organosilane compounds have the advantage that they are typically oil-soluble and react with water. […] Organosilanes for use in the invention preferably have a biodegradability of at least 60%. Whilst not wishing to be bound by theory, it is believed that organosilane compounds react with water and hydrolyse. The resulting chemicals then react with siliceous surfaces in the formation (e.g. the surface of silica sand), coat any sand particles, bind them in place by the formation of bridges and restrict their movement. The advantage of bifunctional organosilanes is their ability to bind two particles together.

[2] = Biodegradability according to OECD 306; conditions: as tested according to OECD 306
Text: as §1

[3] = test system: daphnia; assay: Daphnia toxicity (EC50 daphnia); conditions: in vivo
Text: as §1

[4] = test system: algae; assay: Algae toxicity (IC50 algae); format: cell-based
Text: as §1

SMILES | LC50 fish [1] [µg/mL] | biodegradability [2] [%] | EC50 daphnia [3] [µg/mL] | IC50 algae [4] [µg/mL]
CCO[Si](CCCN)(OCC)OCC [DYNASYLAN AMEO, 3-amino-propyltriethoxysilane] | 934 (≈ 4220 µM) | 67 |  | 
CCO[Si](CCCNCCC[Si](OCC)(OCC)OCC)(OCC)OCC [DYNASYLAN bis-AMEO] | > 200 |  | > 200 | 125 (≈ 294 µM)
